Measured values: US20260138976A1 (Hoffmann-La Roche Inc., priority 2022, published 2026)
Where “and” joins values, the source holds several entries; their conditions need not be identical. Equal values may be shown once.

Experiments:
[1] = target: T1, DGKα (hDGKalpha(1-735)-N-His) (Homo sapiens, UniProt P23743); experiment: In vitro DGK inhibition assay, DGKalpha ADP Glo (in house); assay type: biochemical; settings: 4 nM DGKα, 25 μM ATP, 125 uM DLG in liposomes, 1 hour reaction
T1 construct: hDGKalpha(1-735)-N-His; His (N); made in house; host or cells: Sf21 insect cells (baculovirus)
Protocol: (§1) DGKα and ζ kinases use ATP to phosphorylate the substrate 1,2-dilauroyl-sn-glycerol (DLG, incorporated in the liposomes). ATP is converted to ADP as a result of this enzymatic reaction. After the kinase reaction, an ATP-depletion reagent is added to terminate the kinase reaction and deplete any remaining ATP, leaving only ADP. Second, a detection reagent is added to simultaneously convert ADP to ATP and allow the newly synthesized ATP to be converted to light using a coupled luciferase/luciferin reaction.
(§2) Full length DGKα and ζ were expressed in Sf21 insect cells by infecting the cells with the baculovirus stock at MOI of 2. Purification of both enzymes was performed as previously described by Takahashi et al., PeerJ, 2018 (Takahashi, D.; Sakane, F. Expression and purification of human diacylglycerol 5 kinase alpha from baculovirus-infected insect cells for structural studies. PeerJ2018, 6, No. e5449).
(§3) A concentrated liposome solution was prepared in assay buffer without DTT and BSA: 2 mM of DLG in 21 mM of total liposome (2 mM DLG/8 mM PS/11 mM PC). The reaction mixtures contain the assay buffer with a final DLG concentration of 125 uM ATP concentrations of 25 μM (for DGKA assay) or 50 μM (for DGKZ assay). The reactions were started by addition of DGK α and ζ kinases at 4 nM and 2 nM final concentrations, respectively. After 1 hour reaction, the amount of ADP formed was detected with the ADP-Glo kinase assay (Promega) according to the manufacturer instructions. Compounds were added in 11-points dose response, starting at […], 1:3 dilutions, with a final DMSO concentration of 2%. The multidrop combi was used as a liquid handler and luminescence was read with 0.5 s by the envision reader (PE).

[2] = target: T2, DGKζ (hDGKzeta(1-928)-N-His) (Homo sapiens, UniProt Q13574); experiment: In vitro DGK inhibition assay, DGKzeta ADP Glo (in house); assay type: biochemical; settings: 2 nM DGKζ, 50 μM ATP, 125 uM DLG in liposomes, 1 hour reaction
T2 construct: hDGKzeta(1-928)-N-His; His (N); made in house; host or cells: Sf21 insect cells (baculovirus)
Protocol: as §1, §2, §3

primary human T-cells [3] = experiment: Proliferation assay (5 days, CellTiter-Glo, CD3-stimulated T-cells); assay type: cell-based; settings: for Emax proliferation (% activation): CD3 condition, normalised to DMSO (neutral) and 20 μM reference compound A1 = 100%; for EC50: CD3-stimulated primary human T-cells, 5 days, CellTiter-Glo, fitted sigmoidal curve, read-out: Tcell Proliferation CD3 EC50
Protocol: (§4) As readouts for T-cell activation, 1L2 secretion after 24 hours and proliferation after 5 days was measured. Increases in IL2 secretion and proliferation upon compound treatment were assessed as the % of the maximum of reference compound A1. WO 2016/139181 discloses reference compound A1 as example 70. As a counter screen and to make sure that no unwanted TCR-independent activation was triggered, PBS conditions were run for all compounds.
Expanded primary human T-cells are thawed and cultured in RPMI 1640 (Gibco, #61870-010)+5% human serum (HS, Sigma, #H3667)+1 mM Sodium Pyruvate (Gibco, #11360-039)+50 μM 2-mercaptoethanol (Gibco, #31350-010) and 1× Pen-Strep (Life Technologies, #15140122) medium at density of 2 Mio/ml for 3 hours in 5% CO2, 37° C. and 95% humidity. For coating of plates, PBS++ only or PBS++ with CD3 antibody (concentration depending on donor and determined by CD3 titrations) is added 100 μl/well to Poly-D Lysine coated 96-well plates. Plates are sealed and incubated at room temperature for 3 hours on a table-top rocking platform. After incubation, plates are washed once with PBS−− and filled with 40 μl/well culture medium only. Compounds are then added (see next section) to medium only plates. After 3 hours of culturing the T-cells, cells are filtered through a cell strainer (Miltenyi Biotech, #130-041-407), counted again and concentration is adjusted to 1.25 Mio/ml.
Cells are then seeded 80 μl/well to the 40 μl/well including dispensed compounds according to plate layout. By adding cells, compounds are further diluted 1:3, and resulting in 100 k cells/120 μl/well. After 48 hours 40 μl of supernatant is collected carefully from the top while not disturbing the cells. Cells are assessed for proliferation 5 days later by measuring […] using CellTiterGlo (Promega).
(§5) Compounds were added in a 5 or 6 pt dose response with the Tecan D300e Digital Dispenser, all conditions 3 times more concentrated than the end-concentration, since cells are added afterwards (80 μl cells to 40 μl prepared medium with treatment). The DR was starting at 20 μM or 10 μM final top concentration and a dilution factor of 3.333. The positive control was the reference compound A1 that was added in a dose response as well, additionally to 3 wells of only 20 μM representing the positive stimulator control. All wells were normalized with DMSO to a final concentration of 0.6% (0.2% end-concentration).
After 5 days, for detection of ATP which is directly proportional to the number of cells present per well, the CellTiter-Glo® 2.0 Reagent is used. After visual control for toxicity or precipitations of the tested compounds, the plates are equilibrated to room temperature for 45 minutes. CellTiter-Glo® 2.0 Reagent is equilibrated to room temperature as well. After equilibration, an equal amount of CellTiter-Glo reagent is added to the cells (80 μl/well) with an electronic multichannel pipette. Plates are placed on a rocking platform for 15 minutes at room temperature. After incubation, the bottom of the plates is sealed with backing tape. Luminescence is measured with PHERAstar FSX (interval time 0.5 sec, gain 3000, focal height 15 mm) and exported as CSV file for analysis in Genedata screener.
CD3 and PBS plates were analysed separately in Genedata Screener using Roche Normalization PCT_POS_CTRL with DMSO set as Neutral Control and 20 μM of the reference compound A1 set as Stimulator Control/100%.
For CD3 conditions EC50 and Emax of the fitted sigmoidal curve were reported. If no curve could be fitted, the EC50 was reported as blank field and the Emax was based on individual data points. […] Compounds which activate unstimulated cells (see IL2 measurements) or compounds which negatively affected viability were flagged.

primary human T-cells [4] = experiment: IL2 secretion measurements (24 h, CD3-stimulated T-cells, PBS counter screen); assay type: cell-based; settings: for EC50: CD3-stimulated primary human T-cells, IL2 secretion, fitted sigmoidal curve, read-out: Tcell IL2 CD3 EC50; for Emax IL2 (% activation): CD3 condition, normalised to DMSO (neutral) and 20 μM reference compound A1 = 100%
Protocol: as §4
Expanded primary human T-cells were thawed and cultured in RPMI 1640 (Gibco, #61870-010)+5% human serum (HS, Sigma, #H3667)+1 mM Sodium Pyruvate (Gibco, #11360-039)+50 μM 2-mercaptoethanol (Gibco, #31350-010) and 1× Pen-Strep (Life Technologies, #15140122) medium at density of 2 Mio/ml for 3 hours in 5% CO2, 37° C. and 95% humidity. For coating of plates, […] or PBS++ with CD3 antibody (concentration depending on donor and determined by CD3 titrations) was added 100 μl/well to Poly-D Lysine coated 96-well plates. Plates were sealed and incubated at room temperature for 3 hours on a table-top rocking platform. After incubation, plates were washed once with PBS−− and filled with 40 μl/well culture medium only. Compounds were then added (see next section) to medium only plates. After 3 hours of culturing the T-cells, cells were filtered through a cell strainer (Miltenyi Biotech, #130-041-407), counted again and concentration was adjusted to 1.25 Mio/ml.
Cells were then seeded 80 μl/well to the 40 μl/well including dispensed compounds according to plate layout. By adding cells, compounds were further diluted 1:3, and resulting in 100 k cells/120 μl/well. After 24 hours 40 μl of supernatant was collected carefully from the top while not disturbing the cells and transferred into a round bottom 96 well plate. Collected and frozen supernatant was used for detection of IL2 using the IL-2 Human ProQuantum Immunoassay Kit (Invitrogen) or using the Human IL-2 ELISA Kit (Thermo Fisher).
as §5
The immunoassay is done following the manufacturer's manual (Invitrogen, #A35603). Additional information: For the immunoassay, MicroAmp™ EnduraPlate™ Optical 384-Well plates are used. Frozen supernatant is thawed and centrifuged for 5 minutes at 1000×g, both steps at 4° C. After centrifugation, required sample amount is taken from the top, and in a separate LightCycler V-bottom plate (working plate) diluted with assay dilution buffer, dilution factor depending on the PBS or CD3 condition but at least 1:3. IL-2 standard and blanks are prepared in the same V-bottom plate, standard with a range of 0.0128-5000 pg/ml (extended version). After preparation, 5 μl of sample dilutions or standard/blanks are transferred to the optical 384-well plate (assay plate) and the 10 μl reaction protocol is being followed. For measurement, the QuantStudio 12K Flex system is used. Raw data is extracted and IL-2 concentrations are calculated with the Thermo Fisher online app (apps.thermofisher.com/apps/proquantum).
ELISA is done following the manufacturer's manual (Thermo Fisher Scientific, #88-7025-88). Additional information: For the ELISA Nunc MaxiSorp 96 well plates are used. Frozen supernatant is thawed and centrifuged for 5 minutes at 1000×g, both steps at 4° C. […]

T2 sequence (Q13574 whole entry): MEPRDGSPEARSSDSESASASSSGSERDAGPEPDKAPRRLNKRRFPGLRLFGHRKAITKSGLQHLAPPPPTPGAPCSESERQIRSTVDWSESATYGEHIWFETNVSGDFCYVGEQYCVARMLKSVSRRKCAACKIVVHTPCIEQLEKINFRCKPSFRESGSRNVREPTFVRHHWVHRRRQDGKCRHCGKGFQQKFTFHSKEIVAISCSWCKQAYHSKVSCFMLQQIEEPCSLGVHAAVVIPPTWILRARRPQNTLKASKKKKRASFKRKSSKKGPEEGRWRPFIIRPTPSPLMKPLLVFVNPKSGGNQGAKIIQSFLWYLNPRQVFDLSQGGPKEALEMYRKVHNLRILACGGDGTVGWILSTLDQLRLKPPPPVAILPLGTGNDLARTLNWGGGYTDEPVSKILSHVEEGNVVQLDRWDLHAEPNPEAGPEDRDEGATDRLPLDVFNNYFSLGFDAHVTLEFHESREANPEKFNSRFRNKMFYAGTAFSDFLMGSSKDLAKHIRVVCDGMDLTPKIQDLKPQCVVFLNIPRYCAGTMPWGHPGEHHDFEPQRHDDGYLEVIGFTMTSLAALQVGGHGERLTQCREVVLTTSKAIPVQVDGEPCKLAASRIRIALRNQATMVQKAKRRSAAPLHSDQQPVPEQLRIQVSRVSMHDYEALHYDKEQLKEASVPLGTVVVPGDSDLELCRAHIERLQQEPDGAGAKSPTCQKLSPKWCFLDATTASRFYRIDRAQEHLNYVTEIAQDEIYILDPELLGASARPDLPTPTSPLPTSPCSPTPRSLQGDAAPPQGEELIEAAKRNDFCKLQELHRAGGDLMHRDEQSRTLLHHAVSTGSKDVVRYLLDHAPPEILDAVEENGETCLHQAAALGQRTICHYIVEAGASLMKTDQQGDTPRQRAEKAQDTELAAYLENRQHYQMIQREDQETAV
T1 sequence (P23743 whole entry): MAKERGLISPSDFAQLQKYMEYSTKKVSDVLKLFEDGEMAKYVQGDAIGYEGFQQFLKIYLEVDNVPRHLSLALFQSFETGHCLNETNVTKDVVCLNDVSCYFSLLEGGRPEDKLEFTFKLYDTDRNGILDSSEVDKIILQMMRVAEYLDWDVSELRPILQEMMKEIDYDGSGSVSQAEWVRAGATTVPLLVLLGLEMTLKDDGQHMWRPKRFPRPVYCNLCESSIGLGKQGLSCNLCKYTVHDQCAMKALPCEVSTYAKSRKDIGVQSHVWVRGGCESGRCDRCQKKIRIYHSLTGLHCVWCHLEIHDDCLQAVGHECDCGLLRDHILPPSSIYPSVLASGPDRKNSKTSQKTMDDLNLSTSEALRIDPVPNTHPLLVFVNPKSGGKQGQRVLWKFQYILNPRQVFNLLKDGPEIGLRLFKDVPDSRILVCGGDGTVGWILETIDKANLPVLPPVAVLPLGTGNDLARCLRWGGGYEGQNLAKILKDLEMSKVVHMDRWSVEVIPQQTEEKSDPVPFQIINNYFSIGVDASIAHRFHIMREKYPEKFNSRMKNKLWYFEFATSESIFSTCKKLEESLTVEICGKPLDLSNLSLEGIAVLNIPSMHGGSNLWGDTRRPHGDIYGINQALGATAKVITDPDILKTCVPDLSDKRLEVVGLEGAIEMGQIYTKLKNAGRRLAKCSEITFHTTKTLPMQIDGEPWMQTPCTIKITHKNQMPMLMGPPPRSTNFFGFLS

| SMILES | IC50 [1] | IC50 [2] | Emax proliferation (% activation) (primary human T-cells [3]) | EC50 (primary human T-cells [3]; Homo sapiens, T-cell, 120 h) | EC50 (primary human T-cells [4]) | Emax IL2 (% activation) (primary human T-cells [4]) | EC50 (primary human T-cells [3]) | EC50 (primary human T-cells [4]; Homo sapiens, T-cell) |
| --- | --- | --- | --- | --- | --- | --- | --- | --- |
| COC(F)(c1nnc(-c2ccc3c(c2)N(Cc2ccc(-c4ncn(C5CC5)n4)cc2)C(=O)[C@@H](N)CS3(=O)=O)o1)C(F)(F)F (stereo partly drawn) [Example 66, (3R)-3-amino-5-[[4-(1-cyclopropyl-1,2,4-triazol-3-yl)phenyl]methyl]-1,1-dioxo-7-[5-(1,2,2,2-tetrafluoro-1-methoxy-ethyl)-1,3,4-oxadiazol-2-yl]-2,3-dihydro-1λ^6,5-benzothiazepin-4-one] | 14.9 µM | 6.61 µM | 112 % activation | 1.29 µM |  |  |  |  |
| COc1ccc(-c2ccc(CN3C(=O)[C@@H](N)CS(=O)(=O)c4ccc(-c5nnc(C(C)(C)C#N)o5)cc43)cc2)cc1 [Example 45, 2-[5-[(3R)-3-amino-5-[[4-(4-methoxyphenyl)phenyl]methyl]-1,1,4-trioxo-2,3-dihydro-1λ^6,5-benzothiazepin-7-yl]-1,3,4-oxadiazol-2-yl]-2-methyl-propanenitrile] |  | 0.467 µM and 3.21 µM |  |  |  |  |  |  |
| COC(=O)N1CC2CC(c3nnc(-c4ccc5c(c4)N(Cc4ccc(-c6noc(C(F)(F)F)n6)cc4)C(=O)[C@@H](N)CS5(=O)=O)o3)(C2)C1 [Example 61, methyl 1-[5-[(3R)-3-amino-1,1,4-trioxo-5-[[4-[5-(trifluoromethyl)-1,2,4-oxadiazol-3-yl]phenyl]methyl]-2,3-dihydro-1λ^6,5-benzothiazepin-7-yl]-1,3,4-oxadiazol-2-yl]-3-azabicyclo[3.1.1]heptane-3-carboxylate] |  |  | 228 % activation |  | 0.606 µM | 241 % activation | 0.216 µM |  |
| N[C@H]1CS(=O)(=O)c2ccc(-c3nnc(N4CCC(F)(F)CC4)o3)cc2N(Cc2ccc(-c3nnc(C(F)F)o3)cc2)C1=O [Example 70, (3R)-3-amino-5-[[4-[5-(difluoromethyl)-1,3,4-oxadiazol-2-yl]phenyl]methyl]-7-[5-(4,4-difluoro-1-piperidyl)-1,3,4-oxadiazol-2-yl]-1,1-dioxo-2,3-dihydro-1λ^6,5-benzothiazepin-4-one] |  |  | 76 % activation | 2.76 µM |  | 43 % activation |  | > 10 µM |
| CC(C)(C)c1nnc(-c2ccc3c(c2)N(Cc2ccc(-c4cc(C(F)(F)F)no4)cc2)C(=O)[C@@H](N)CS3(=O)=O)o1 [Example 31, (3R)-3-amino-7-(5-tert-butyl-1,3,4-oxadiazol-2-yl)-1,1-dioxo-5-[[4-[3-(trifluoromethyl)isoxazol-5-yl]phenyl]methyl]-2,3-dihydro-1λ^6,5-benzothiazepin-4-one] |  |  | 83 % activation | 0.349 µM |  | 133 % activation |  | 0.906 µM |
| CC(C)(C#N)c1nnc(-c2ccc3c(c2)N(Cc2ccc(-c4ccc(C(F)F)cn4)cc2)C(=O)[C@@H](N)CS3(=O)=O)o1 [Example 40, 2-[5-[(3R)-3-amino-5-[[4-[5-(difluoromethyl)-2-pyridyl]phenyl]methyl]-1,1,4-trioxo-2,3-dihydro-1λ^6,5-benzothiazepin-7-yl]-1,3,4-oxadiazol-2-yl]-2-methyl-propanenitrile] |  |  | 118 % activation | 2.48 µM |  | 105 % activation |  | 3.79 µM |
| CC(C)(C)c1nnc(-c2ccc3c(c2)N(Cc2ccc(-c4nc(C5CC5)no4)cc2)C(=O)[C@@H](N)CS3(=O)=O)o1 [Example 29, (3R)-3-amino-7-(5-tert-butyl-1,3,4-oxadiazol-2-yl)-5-[[4-(3-cyclopropyl-1,2,4-oxadiazol-5-yl)phenyl]methyl]-1,1-dioxo-2,3-dihydro-1λ^6,5-benzothiazepin-4-one] |  |  | 208 % activation | 0.844 µM |  | 156 % activation |  | 0.956 µM |
